The record followed here is US20100291168A1, “ANTIMICROBIAL FORMULATIONS COMPRISING A COMBINATION OF A PYRIDINE THIOL AND A BIS-QUINOLINIUM SALT” (priority 2007, published 2010).

For one experiment, the system named is P. acnes NCTC 737. In words: Disc diffusion / synergy disc diffusion assay ((S)DDA). The experiment is classed as cell-based, Propionibacterium acnes. On the procedure: The propionibacteria were cultured and maintained on Wilkins-Chalgren Anaerobe Medium (agar and broth) at pH 6.0; all cultures were incubated anaerobically at 37° C. for 72 hours.
(c) Disc Diffusion Assay (DDA)
This is an internationally recognised standard method for qualitatively assessing the antimicrobial activity of a compound.
A sterile paper disc was impregnated with a sample of the test compound in a suitable solvent and 30 minutes allowed for the solvents to evaporate (where possible). The disc was then placed on an agar plate onto which the test micro-organism had been inoculated. The plate was then incubated under the conditions described above, following which it was examined visually for signs of microbial growth. […] The diameter of this zone of “inhibition” was measured using a ProtoCOL™ automated zone sizer (Synbiosis, Cambridge, UK).
(d) Synergy Disc Diffusion Assay (SDDA)
This is a variation on the DDA method, in which two compounds are tested together for their combined antimicrobial activity.
Two test compounds A and B were placed on a single paper disc and the above described DDA procedure repeated.
Mixtures of the two test compounds were then subjected to SDDA assays as described above.
For the (S)DDA experiments, 50 μg of the DC was loaded onto each disc, and 200 μg of the ZP. All the (S)DDA experiments were conducted in triplicate.
For the (S)DDA experiments, 50 μg of the DI was loaded onto each disc, and 200 μg of the ZP. The DI and ZP were both dissolved in DMSO.
All the (S)DDA experiments were conducted in triplicate.

The next experiment deals with P. acnes PRP-010. The experiment is classed as cell-based, Propionibacterium acnes. As to conditions: P. acnes PRP-010 (MLSK); 50 μg DC or 200 μg ZP per disc. The protocol: (§1) Other propionibacterial strains were also tested, as described in Example 4 below. These included certain antibiotic resistant propionibacteria, such as the two P. acnes strains designated PRP-010 and PRP-039 which are resistant respectively to macrolides-lincosamides-streptogramins-ketolides (MLSK) and to macrolides-lincosamides-streptogramins (MLS) and tetracycline—in other words, PRP-010 is resistant to erythromycin and clindamycin, and PRP-039 to erythromycin, clindamycin and tetracycline.
(§2) Some of these strains have known antibiotic resistance.
(§3) All the experiments were conducted in triplicate.

The next experiment deals with P. acnes PRP-039. The experiment is classed as cell-based, Propionibacterium acnes. As to conditions: P. acnes PRP-039 (Tet/MLS); 50 μg DC or 200 μg ZP per disc. On the procedure:
as §1, §2, §3

Another experiment relates to P. acnes PRP-003. The experiment is classed as cell-based, Propionibacterium acnes. As to conditions: P. acnes PRP-003 (Tet); 50 μg DC or 200 μg ZP per disc. On the procedure: as §2, §3
For a further experiment, the system named is P. acnes PRP-026. The experiment is classed as cell-based, Propionibacterium acnes. To be noted: P. acnes PRP-026 (MLS); 50 μg DC or 200 μg ZP per disc. The protocol: as §2, §3
The test system of the next experiment is P. acnes PRP-101. The experiment is classed as cell-based, Propionibacterium acnes. To be noted: P. acnes PRP-101 (Tet/MLS); 50 μg DC or 200 μg ZP per disc. The protocol:
as §2, §3

For the next experiment, the system named is P. acnes PRP-068. The experiment is classed as cell-based, Propionibacterium acnes. To be noted: P. acnes PRP-068 (Ery); 50 μg DC or 200 μg ZP per disc. On the procedure: as §2, §3
The subject of another experiment is P. acnes PRP-004. The experiment is classed as cell-based, Propionibacterium acnes. As to conditions: P. acnes PRP-004 (Tet); 50 μg DC or 200 μg ZP per disc. The protocol:
as §2, §3

In another experiment the test system is P. acnes PRP-017. The experiment is classed as cell-based, Propionibacterium acnes. As to conditions: P. acnes PRP-017 (MLS); 50 μg DC or 200 μg ZP per disc. On the procedure: as §2, §3
The next experiment deals with P. acnes PRP-002. The experiment is classed as cell-based, Propionibacterium acnes. As to conditions: P. acnes PRP-002 (Tet/MLS); 50 μg DC or 200 μg ZP per disc. On the procedure: as §2, §3
A further experiment has as its system P. acnes PRP-008. The experiment is classed as cell-based, Propionibacterium acnes. To be noted: P. acnes PRP-008 (Clin); 50 μg DC or 200 μg ZP per disc. On the procedure: as §2, §3
The subject of a further experiment is P. acnes PRP-023. The experiment is classed as cell-based, Propionibacterium acnes. As to conditions: P. acnes PRP-023 (MLSK); 50 μg DC or 200 μg ZP per disc. The protocol: as §2, §3
Another experiment has as its system P. acnes PRP-059. The experiment is classed as cell-based, Propionibacterium acnes. As to conditions: P. acnes PRP-059 (MLS); 50 μg DC or 200 μg ZP per disc. On the procedure: as §2, §3
The next experiment relates to P. acnes PRP-053. The experiment is classed as cell-based, Propionibacterium acnes. As to conditions: P. acnes PRP-053 (Tet/MLS); 50 μg DC or 200 μg ZP per disc. The protocol: as §2, §3
In a further experiment the test system is P. acnes PRP-102. The experiment is classed as cell-based, Propionibacterium acnes. To be noted: P. acnes PRP-102 (Tet/MLS); 50 μg DC or 200 μg ZP per disc. On the procedure:
as §2, §3

A further experiment deals with P. granulosum NCTC 11865. Briefly: (S)DDA. The experiment is classed as cell-based, Propionibacterium granulosum. As to conditions: P. granulosum NCTC 11865 (resistance None); 50 μg DC or 200 μg ZP per disc. On the procedure:
as §2, §3

Experiment [1] relates to C. difficile ATCC 7000057. Briefly: (S)DDA. As to conditions: 50 μg DC or 200 μg ZP per disc. The experiment is classed as cell-based, Clostridium difficile. The protocol:
(§4) The activity of a DC/ZP combination was determined, using (S)DDAs, against two further test micro-organisms, namely C. difficile ATCC 7000057 and Cor. mucifaciens ATCC 700355. A DI/ZP combination was also tested against Cor. mucifaciens.
(§5) In these tests, 50 μg (for C. difficile) or 200 μg (for Cor. mucifaciens) of the DC was loaded onto each disc. The DI and the ZP were both loaded at 200 μg per disc. All the (S)DDA experiments were conducted in triplicate.

Experiment [2] has as its system Cor. mucifaciens ATCC 700355. Briefly: (S)DDA. The experiment is classed as cell-based, Corynebacterium mucifaciens. The protocol: as §4, §5
Where [3] appears, read: Example 1, zone of inhibition diameter, 50 μg DC or 200 μg ZP per disc.
Where [4] appears, read: Table 6, 200 μg DC or 200 μg ZP per disc.

On to `Cc1cc(N)c2ccccc2[n+]1CCCCCCCCCC[n+]1c(C)cc(N)c2ccccc21.[Cl-].[Cl-]` [DC, dequalinium chloride], for which the DDA in the experiment on P. acnes NCTC 737 (setting [3]) is on record as 16.68 mm; with P. acnes PRP-010 it was 17.37 mm; in the experiment with P. acnes PRP-039, 28.98 mm; with P. acnes PRP-003, 21.27 mm; with P. acnes PRP-026 it was 19.01 mm; in the experiment on P. acnes PRP-101, 16.96 mm. For the same compound, the DDA turned out to be 20.45 mm in the experiment with P. acnes PRP-068; 20.45 mm in the experiment on P. acnes PRP-004; 17.27 mm in the experiment with P. acnes PRP-017; 20.04 mm with P. acnes PRP-002; 19.73 mm with P. acnes PRP-008; 19.32 mm in the experiment with P. acnes PRP-023. In addition, the DDA in the experiment on P. acnes PRP-059 turned out to be 19.42 mm; in the experiment on P. acnes PRP-053, 21.38 mm; with P. acnes PRP-102, 21.68 mm; in the experiment on P. granulosum NCTC 11865, 14.08 mm; in experiment [1], 0.0 mm; in experiment [2] (setting [4]), 17.2 mm.

With zinc pyrithione [ZP], the DDA in the experiment with P. acnes NCTC 737 (setting [3]) stood at 15.85 mm; in the experiment with P. acnes NCTC 737 (Example 3, zone of inhibition diameter, 50 μg DI or 200 μg ZP per disc, both in DMSO) it was 46.44 mm; in the experiment on P. acnes PRP-010, 20.96 mm; in the experiment on P. acnes PRP-039 it was 29.70 mm; in the experiment on P. acnes PRP-003, 26.82 mm; in the experiment with P. acnes PRP-026, 16.24 mm. The DDA is given as 14.39 mm with P. acnes PRP-101; 14.90 mm in the experiment on P. acnes PRP-068; 12.43 mm with P. acnes PRP-004; 19.01 mm in the experiment with P. acnes PRP-017; 25.79 mm in the experiment with P. acnes PRP-002; 14.90 mm in the experiment with P. acnes PRP-008. Further, the DDA with P. acnes PRP-023 is on record as 17.37 mm; in the experiment on P. acnes PRP-059 it was 16.34 mm; in the experiment on P. acnes PRP-053, 29.91 mm; in the experiment with P. acnes PRP-102 it was 16.85 mm; in the experiment with P. granulosum NCTC 11865 it was 23.95 mm; in [1], 20.31 mm. The DDA in experiment [2] (setting [4]) is 28.14 mm; in experiment [2] (Table 7, 200 μg DI or 200 μg ZP per disc), 28.14 mm.
